For 14 compounds, T/C results are on record in PubChem BioAssay AID210 (DTP/NCI, 2004).

For the test, the system named is CD2F1 mice, ip Colon 26 adenocarcinoma, median survival T/C. Briefly: NCI In Vivo Anticancer Drug Screen. Data for tumor model Colon 26 Adenocarcinoma (intraperitoneal) in CD2F1 (CDF1) mice. The conditions noted are these: endpoint: median survival time, higher = longer survival. How it is done: The antitumor activity of compounds was measured in mice bearing transplantable tumors. Survival or tumor size were measured and the results are expressed as the measurement made in the treated group (T) divided by the measurement made in the vehicle treated control group (C). The tumor model used in this assay is Colon 26 Adenocarcinoma (intraperitoneal) in CD2F1 (CDF1) mice

The mark [1] stands for this setting: dose: 12.5 mg/kg/injection, schedule: Q04DX003 (ip), vehicle: saline with Tween-80.
[2] abbreviates: dose: 25.0 mg/kg/injection, schedule: Q04DX003 (ip), vehicle: saline with Tween-80.
The mark [3] stands for this setting: dose: 50.0 mg/kg/injection, schedule: Q04DX003 (ip), vehicle: saline with Tween-80.
Setting [4] is: dose: 4.0 mg/kg/injection, schedule: Q01DX009 (ip), vehicle: saline.
Setting [5] is: dose: 8.0 mg/kg/injection, schedule: Q01DX009 (ip), vehicle: saline.
The mark [6] stands for this setting: dose: 16.0 mg/kg/injection, schedule: Q01DX009 (ip), vehicle: saline.
The mark [7] stands for this setting: dose: 12.5 mg/kg/injection, schedule: Q04DX003 (ip), vehicle: Klucel (hydroxypropylcellulose) (HPC).
The mark [8] stands for this setting: dose: 25.0 mg/kg/injection, schedule: Q04DX003 (ip), vehicle: Klucel (hydroxypropylcellulose) (HPC).
The mark [9] stands for this setting: dose: 50.0 mg/kg/injection, schedule: Q04DX003 (ip), vehicle: Klucel (hydroxypropylcellulose) (HPC).

Toxic doses and inconclusive results are not listed.

Take `CCC[P+](c1ccccc1)(c1ccccc1)c1ccccc1`: the T/C was 112 % of control (dose: 3.12 mg/kg/injection, schedule: Q04DX003 (ip), vehicle: saline with Tween-80); 107 % of control (dose: 6.25 mg/kg/injection, schedule: Q04DX003 (ip), vehicle: saline with Tween-80); 104 % of control under setting [1]; 110 % of control under setting [2]; 110 % of control under setting [3].

Regarding `Cc1c(N)nc([C@H](CC(N)=O)NC[C@H](N)C(N)=O)nc1C(=O)N[C@H](C(=O)N[C@H](C)[C@@H](O)[C@H](C)C(=O)N[C@H](C(=O)NCCc1nc(-c2nc(C(=O)NCCC[S+](C)C)cs2)cs1)[C@@H](C)O)C(OC1OC(CO)C(O)C(O)C1OC1OC(CO)C(O)C(OC(N)=O)C1O)c1cnc[nH]1` (some centres undefined), the T/C is 115 % of control (dose: 1.0 mg/kg/injection, schedule: Q01DX009 (ip), vehicle: saline); 111 % of control (dose: 2.0 mg/kg/injection, schedule: Q01DX009 (ip), vehicle: saline); 107 % of control under setting [4]; 111 % of control under setting [5]; 111 % of control under setting [6].

Consider `C=CCNc1ccc(C)cc1`, for which the T/C was 104 % of control under setting [1]; 104 % of control under setting [2]; 96 % of control under setting [3]; 97 % of control (dose: 100.0 mg/kg/injection, schedule: Q04DX003 (ip), vehicle: saline with Tween-80).

As to `[I][Hg][CH2]C1COC([CH2][Hg][I])CO1` (centres undefined), the T/C by setting is: under setting [1], 117 % of control; under setting [2], 109 % of control; under setting [3], 96 % of control.

For `CN(C)CCNc1cccc2c1C(=O)c1cccc(NCCN(C)C)c1C2=O`, the T/C by setting is: (dose: 1.88 mg/kg/injection, schedule: Q01DX009 (ip), vehicle: saline) 103 % of control; (dose: 3.75 mg/kg/injection, schedule: Q01DX009 (ip), vehicle: saline) 108 % of control; (dose: 7.5 mg/kg/injection, schedule: Q01DX009 (ip), vehicle: saline) 99 % of control; (dose: 15.0 mg/kg/injection, schedule: Q01DX009 (ip), vehicle: saline) 113 % of control.

For the compound `O=C(CCCN1CCC(O)(c2cccc(C(F)(F)F)c2)CC1)c1ccc(F)cc1`, the T/C (dose: 3.12 mg/kg/injection, schedule: Q04DX003 (ip), vehicle: Klucel (hydroxypropylcellulose) (HPC)) was 94 % of control; the T/C (dose: 6.25 mg/kg/injection, schedule: Q04DX003 (ip), vehicle: Klucel (hydroxypropylcellulose) (HPC)) is 95 % of control; the T/C under setting [7] is 99 % of control; the T/C under setting [8] was 97 % of control; the T/C under setting [9] is 105 % of control.

In the case of `CC(=O)[C@]1(O)Cc2c(O)c3c(c(O)c2[C@@H](OC2CC(N)C(O)C(C)O2)C1)C(=O)c1c(O)cccc1C3=O` (some centres undefined), the T/C was 106 % of control (dose: 0.7 mg/kg/injection, schedule: Q07DX003 (iv), vehicle: water); 124 % of control (dose: 1.1 mg/kg/injection, schedule: Q07DX003 (iv), vehicle: water); 157 % of control (dose: 1.8 mg/kg/injection, schedule: Q07DX002 (iv), vehicle: water); 157 % of control (dose: 1.8 mg/kg/injection, schedule: Q07DX003 (iv), vehicle: water); 183 % of control (dose: 2.8 mg/kg/injection, schedule: Q07DX002 (iv), vehicle: water); 187 % of control (dose: 2.8 mg/kg/injection, schedule: Q07DX003 (iv), vehicle: water). Moreover, the T/C runs as follows: (dose: 4.2 mg/kg/injection, schedule: Q07DX002 (iv), vehicle: water) 104 % of control; (dose: 600.0 micrograms/kg/injection, schedule: Q04DX003 (ip), vehicle: water) 92 % of control.

`C[C@]12CCC(=O)C=C1CC[C@@H]1[C@@H]2[C@@H](O)C[C@@]2(C)[C@H]1CC[C@]2(O)C(=O)CO`: the T/C was 102 % of control (dose: 40.0 mg/kg/injection, schedule: Q04DX003 (ip), vehicle: Klucel (hydroxypropylcellulose) (HPC)); 100 % of control (dose: 80.0 mg/kg/injection, schedule: Q04DX003 (ip), vehicle: Klucel (hydroxypropylcellulose) (HPC)); 102 % of control (dose: 160.0 mg/kg/injection, schedule: Q04DX003 (ip), vehicle: Klucel (hydroxypropylcellulose) (HPC)); 102 % of control (dose: 320.0 mg/kg/injection, schedule: Q04DX003 (ip), vehicle: Klucel (hydroxypropylcellulose) (HPC)); 96 % of control (dose: 640.0 mg/kg/injection, schedule: Q04DX003 (ip), vehicle: Klucel (hydroxypropylcellulose) (HPC)).

For `CN(N=O)C(=O)N[C@@H](C=O)[C@@H](O)[C@H](O)[C@H](O)CO`, the T/C (dose: 12.5 mg/kg/injection, schedule: Q04DX003 (ip), vehicle: other) was 113 % of control; the T/C (dose: 25.0 mg/kg/injection, schedule: Q04DX003 (ip), vehicle: other) is 110 % of control; the T/C (dose: 50.0 mg/kg/injection, schedule: Q04DX003 (ip), vehicle: other) was 118 % of control; the T/C (dose: 100.0 mg/kg/injection, schedule: Q04DX003 (ip), vehicle: other) is 124 % of control; the T/C (dose: 200.0 mg/kg/injection, schedule: Q04DX003 (ip), vehicle: other) is 123 % of control.

For `CN(C)CCCNc1cccc2c1C(=O)c1c(NCCCN(C)C)cccc1C2=O`, the T/C runs as follows: under setting [4], 111 % of control; under setting [5], 97 % of control; under setting [6], 95 % of control; (dose: 32.0 mg/kg/injection, schedule: Q01DX009 (ip), vehicle: saline) 89 % of control; (dose: 64.0 mg/kg/injection, schedule: Q01DX009 (ip), vehicle: saline) 87 % of control.

As for `N=C(N)Sc1ccccn1`, the T/C runs as follows: (dose: 12.5 mg/kg/injection, schedule: Q04DX003 (ip), vehicle: saline) 94 % of control; (dose: 25.0 mg/kg/injection, schedule: Q04DX003 (ip), vehicle: saline) 101 % of control; (dose: 50.0 mg/kg/injection, schedule: Q04DX003 (ip), vehicle: saline) 91 % of control; (dose: 100.0 mg/kg/injection, schedule: Q04DX003 (ip), vehicle: saline) 91 % of control.

With `CC[C@@]1(O)C[C@H](OC2CC(N(C)C)C(OC3CC(O)C(OC4CCC(=O)C(C)O4)C(C)O3)C(C)O2)c2c(cc3c(c2O)C(=O)c2c(O)cccc2C3=O)[C@H]1C(=O)OC` (some centres undefined), the T/C was 105 % of control (dose: 6.2 mg/kg/injection, schedule: Q07DX003 (iv), vehicle: water); 119 % of control (dose: 10.0 mg/kg/injection, schedule: Q07DX003 (iv), vehicle: water); 117 % of control (dose: 16.0 mg/kg/injection, schedule: Q07DX003 (iv), vehicle: water).

`COC12[C@@H]3N[C@@H]3CN1C1=C(C(=O)C(NCCSSCCNC3=C(C)C(=O)C4=C(C3=O)C(COC(N)=O)[C@]3(OC)C5N[C@@H]5CN43)=C(C)C1=O)[C@@H]2COC(N)=O` (some centres undefined): the T/C (dose: 1.0 mg/kg/injection, schedule: Q01DX004 (ip), vehicle: other) is 94 % of control; the T/C (dose: 2.0 mg/kg/injection, schedule: Q01DX004 (ip), vehicle: other) is 99 % of control; the T/C (dose: 2.0 mg/kg/injection, schedule: Q03DX002 (ip), vehicle: other) is 100 % of control; the T/C (dose: 4.0 mg/kg/injection, schedule: Q01DX004 (ip), vehicle: other) is 107 % of control; the T/C (dose: 4.0 mg/kg/injection, schedule: Q03DX002 (ip), vehicle: other) was 117 % of control; the T/C (dose: 6.0 mg/kg/injection, schedule: Q01DX004 (ip), vehicle: other) is 101 % of control. The T/C was 96 % of control (dose: 6.0 mg/kg/injection, schedule: Q01DX005 (ip), vehicle: other); 96 % of control (dose: 9.0 mg/kg/injection, schedule: Q01DX005 (ip), vehicle: other); 110 % of control (dose: 9.0 mg/kg/injection, schedule: Q03DX002 (ip), vehicle: other); 106 % of control (dose: 15.0 mg/kg/injection, schedule: Q01DX005 (ip), vehicle: other).

On to `CC(CN1CC(=O)NC(=O)C1)N1CC(=O)NC(=O)C1` (centres undefined), for which the T/C was 100 % of control under setting [7], 98 % of control under setting [8] and 102 % of control under setting [9].
